Data taken from patent US9017938B2, “Use of microrna-199b-5p in medical and diagnostic field” (Advanced Accelerator Applications, priority 2009, dated 2015).

Columns and labels:
HES1 3′UTR = assay: Luciferase reporter assay, HES1 3′UTR; assay type: cell-based, human; conditions: co-transfected miR-199b-5p expression vector
Procedure: To determine the activity of miR-199b-5p on repression of the luciferase-3′UTR fused constructs, the pREYZO-miR-199b-5p construct and the pRL-CMV-3′UTR target construct were co-transfected into HEK293 cells at a ratio of 10:1, using the Polyfect reagent (Qiagen) together with the pGL3 basic vector, in the absence and presence of 2-OM (400 nM). Luciferase activities were analysed using a Dual Luciferase Reporter Assay system (Promega, Madison, Wis.).
Pre-miR-199b was cloned in a pcDNA3 modified vector (pREYZO) (D'angelo et al., 2004) using EcoRI-XhoI restriction sites. HES1 and GSK-3˜target-binding sites (3′UTRs) were cloned in tandem in the 3′UTR of 20 the pRL-cytomegalovirus (CMV) vector (Promega, Madison, Wis.) downstream of the coding region of Renilla luciferase (RL) in the XbaI site The HES1 3′UTR (including the 199b binding site) was amplified from genomic DNA with the following primers: HES1—3′UTR as […] (SEQ ID NO: 96) and HES1—3′UTR as […] (SEQ ID NO: 97), and was cloned in the TK vector (Promega, Madison, Wis.) upstream of the firefly luciferase gene, in the XbaI sites. HES1 full-length cDNA was obtained with a standard RTPCR approach from a Daoy cDNA.
The site-directed mutagenesis of the miR-199b-5p binding site in HES1 3′UTR was generated according to the manufacturer protocol of the QuikChange site-directed mutagenesis kit (Stratagene, La Jolla, Calif.). […]

Daoy cells [1] = assay: FACS cell-cycle analysis (propidium iodine); assay type: cell-based, human
Procedure: (§1) The flow cytometry analysis of S-phase fractions and cell-cycle kinetics were carried out using a FACSCalibur (Becton Dickinson, San Jose, Calif.) using CELL Quest version 3.3 software. The CD133 studies were carried out using the same instrument, with antibodies from Miltenyi Biotec (Auburn, Calif.), according to the manufacturer instructions. In brief, the cells were blocked in Fc receptor blocking reagent and incubated with an anti-CD133/1 (AC133)-phycoerythrin antibody (Miltenyi Biotec), for 10 min in the dark at 4° C. The cells were then washed and resuspended in PBS. Cells expressing higher levels of CD133 than the immunoglobulin G (IgG) controls were considered positive. For analyses of the side populations, cells […] were incubated with Hoechst 33342 (5 μmol/L; Sigma) for 90 min at 37° C. in EMEM containing 2% FBS. To ensure the correct identification of the side population cells, the cells were incubated as above with the addition of 50 μM verapamil (Sigma).

[2] = system: Daoy cell side population; assay: Side population FACS (Hoechst 33342 exclusion); assay type: cell-based, human
Procedure: as §1

Daoy cells [3] = assay: Orthotopic cerebellar xenograft (BLI, PET-CT, immunohistochemistry); assay type: in vivo, nude mice; conditions: 199bSC1 clone injected into fourth ventricle, four weeks, vs control cells
Procedure: The mice were kept in a ventilated cage (26° C.) for 1 h prior to imaging studies. Anesthesia was performed with intraperitoneal administration of a mixture of ketamine (100 mg/kg) and xylazine (10 mg/kg) (injection volume, 100 μl/10 g). PET was performed 1 h after administration of 3′-deoxy-3′-[18F]fluorothymidine ([18F]FLT), a marker of tumor proliferation (50 μL; 7.4 MBq; scan time, 18 min), in a lateral caudal vein, using an animal PET scanner (GE Healthcare eXplore Vista, FWHM 1.6 mm). High resolution CT studies (GE Healtcare eXplore Locus; spatial resolution, 45 μm) were performed within 24 h from the PET.
Lesion volumes were calculated from PET data using in-house-developed software (based on IDL, ITT Vis Inc), by summarizing all spatially connected voxels with SUV>50% SUVmax. Lesion profiles defined with these procedures were used for ROI-based comparison between AdV5-Mock and AdV5-199b.
Unmasking was performed in 10 mM citrate buffer, pH 6, at 97° C. for 45 min. […]
To establish intracerebellar xenograft models, 6-to-8-week-old SCID mice were anesthetized with Tribromoethanol (Avertin®) (50 mg/kg); after this, a small skin incision (1 mm) was made and a burr hole (0.7 mm in diameter) created with a microsurgical drill (Fine Science Tools, Foster City, Calif.). […] The animals were monitored weekly by bioluminescence to evaluate tumor growth for 8 weeks.

[4] = stable 199bSC1 clone vs empty vector clone

## miR-199b-5p: mature microRNA CCCAGUGUUUAGACUAUCUGUUC (SEQ ID NO:11); over-expressed from pre-miR-199b construct, e.g. stable Daoy clones 199bSC1, 199bMC1 (listed as RNA, chemistry not fully specified)
HES1 3′UTR
  effect on luciferase reporter with HES1 3′UTR mutated in the miR-199b binding site: no effect
HES1 3′UTR; HEK293 and Daoy cell lines
  reduction of luciferase activity from wild-type HES1 3′UTR reporter: 50%
Daoy cells [1]; stable 199bMC1 clone
  changes in cell cycle: did not show significant changes
Daoy cells [1]; [4]
  decrease in S-phase fractions: 31%
  increase in cells in G0-G1: 15%
[2]; stable 199bMC1 clone (Daoy cells 5.2%)
  fraction of SP cells: 0.4%
[2]; stable 199bSC1 clone (Daoy cells 5.2%)
  fraction of SP cells: 0.2%
Daoy cells [3]
  tumor growth by BLI: considerably lower
